Test results as given in BindingDB's records for patent WO2025064535 (Deep Apple Therapeutics, 2025).

What follows are compounds tested against T1, Mas-related G-protein coupled receptor member X2 (Homo sapiens, UniProt Q96LB1) (assay: MRGPRX2 Activity Assay).
T1 sequence (Q96LB1 whole entry): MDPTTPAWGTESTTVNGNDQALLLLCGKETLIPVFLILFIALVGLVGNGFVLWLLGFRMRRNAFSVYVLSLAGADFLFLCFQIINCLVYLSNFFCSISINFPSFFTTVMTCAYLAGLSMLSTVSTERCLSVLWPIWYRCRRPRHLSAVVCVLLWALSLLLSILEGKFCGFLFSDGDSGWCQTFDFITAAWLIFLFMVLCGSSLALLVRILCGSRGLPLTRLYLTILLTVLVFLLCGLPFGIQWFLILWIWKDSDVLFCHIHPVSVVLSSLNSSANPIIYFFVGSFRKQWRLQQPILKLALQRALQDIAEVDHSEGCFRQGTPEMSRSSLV
Protocol: FlpIn TRex-MRGPRX2-HEK293 cells (herein TRex-MRPGRX2-HEK) stably transfected to express human MRGPRX2 were maintained at 37 °C with 5% CO2 and grown in DMEM supplemented with 10% FBS, 1% L-Glutamate, 1% penicillin/streptomycin, 100ug/mL Hygromycin B, and 15 µg/mL Blasticidin. GOI (MRGPRX2) expression was induced with 100ng/mL of Doxycycline 18-24 hours prior to experiment, in flask. On the day of experiment, cells were lifted with TripLE Express and seeded in 384-well white walled opaque bottomed, assay plates, at 8,000 cells per well in 5 µL freshly made assay buffer (HBSS, 20 mM HEPES, 0.1% BSA and 10 mM LiCl). Compounds solubilized in 100% DMSO at 30 mM were serially diluted (1:4) first in 100% DMSO, and an intermediate plate of assay buffer was used to establish a final top concentration of 30 µM (in assay plate). Final DMSO concentration was kept constant at 1% across assay plates. Cortistatin-14, at 30 mM stock concentration was solubilized in HBSS + 0.1% BSA, stored at -20°C in 5 µL aliquots and discarded after one freeze-thaw cycle. […] Antagonist equilibrium was established with 30 minutes preincubation, followed by no wash, direct addition, and stimulation of agonist for 1 hour at 37 °C / 5% CO2. IP-1 standards and HTRF detection reagents were added according to the IP-one Gq kit protocol purchased from CisBio (part number 62IPAPEJ). The plate was read on an EnVision XCite plate reader. The HTRF ratio was then calculated from raw data (channel1/channel2 ×10,000) and analyzed using either GraphPad Prism or a custom Python script to calculate IC50 using Log[Antagonist] vs. response (4 parameter) nonlinear regression.

SMILES | IC50 [µM]
C[C@@H](C(=O)Nc1nc2cc3c(cc2s1)OC(F)(F)O3)N1CC[C@@H](F)[C@@H](c2cc[n+]([O-])cc2)C1 [WO2025064535, Compound 36] | > 30
C[C@@H](C(=O)Nc1nc2cc3c(cc2s1)OC(F)(F)O3)N1CCC(F)(F)[C@@H](c2ccc(=O)[nH]c2)C1 [WO2025064535, Compound 31] | > 30
C[C@@H](C(=O)Nc1nc2cc3c(cc2s1)OC(F)(F)O3)N1CCC(F)(F)[C@@H](c2ncn[nH]2)C1 [WO2025064535, Compound 104] | 0.031
C[C@@H](C(=O)Nc1nc2cc3c(cc2s1)OC(F)(F)O3)N1CCC(F)(F)[C@H](c2c[nH]c(=O)cn2)C1 [WO2025064535, Compound 35] | 1.02
C[C@@H](C(=O)Nc1nc2cc3c(cc2s1)OC(F)(F)O3)N1CCC(F)(F)[C@@H](c2c[nH]c(=O)c([C@H](N)C(F)F)c2)C1 [WO2025064535, Compound 21] | 0.018
C[C@@H](C(=O)Nc1nc2cc3c(cc2s1)OC(F)(F)O3)N1CCC(F)(F)[C@H](c2ncn[nH]2)C1 [WO2025064535, Compound 105] | 0.509
C[C@@H](C(=O)Nc1nc2cc3c(cc2s1)CCC3)N1CCC(F)(F)CC1 [WO2025064535, Compound 18] | 0.085
C[C@@H](C(=O)Nc1nc2cc3c(cc2s1)OC(F)(F)O3)N1CC[C@H](F)[C@H](c2cc[n+]([O-])cc2)C1 [WO2025064535, Compound 39] | 0.223
C[C@@H](C(=O)Nc1nc2cc3c(cc2s1)OC(F)(F)O3)N1CCC(F)(F)[C@@H](c2cc[n+]([O-])c(CN)c2)C1 [WO2025064535, Compound 64] | > 30
C[C@@H](C(=O)Nc1nc2cc3c(cc2s1)OC(F)(F)O3)N1CCC(F)(F)[C@@H](c2c[nH]c(=O)c([C@@H](N)C(F)F)c2)C1 [WO2025064535, Compound 22] | 0.017
C[C@@H](C(=O)Nc1nc2cc3c(cc2s1)OCCO3)N1CCC(F)(F)[C@H](c2ccc(=O)[nH]c2)C1 [WO2025064535, Compound 30] | 1.07
C[C@@H](C(=O)Nc1nc2cc3c(cc2s1)OC(F)(F)O3)N1CCC(F)(F)[C@@H](c2c[nH]c(=O)c(CN3CCOCC3)c2)C1 [WO2025064535, Compound 66] | > 30
C[C@H](C(=O)Nc1nc2cc3c(cc2s1)OC(F)(F)O3)N1CCC(F)(F)[C@H](c2c[nH]c(=O)c(CN)c2)C1 [WO2025064535, Compound 83] | > 30
C[C@@H](C(=O)Nc1nc2cc3c(cc2s1)OC(F)(F)O3)N1CCC(F)(F)[C@@H](c2cc[n+]([O-])c([C@@H](O)CO)c2)C1 [WO2025064535, Compound 51] | > 30
C[C@H](C(=O)Nc1nc2cc3c(cc2s1)OC(F)(F)O3)N1CCC(F)(F)[C@@H](c2c[nH]c(=O)c(CN)c2)C1 [WO2025064535, Compound 84] | 1.16
C[C@@H](C(=O)Nc1nc2cc3c(cc2s1)OC(F)(F)O3)N1CCC(F)(F)[C@@H](c2c[nH]c(=O)c(CN)c2)C1 [WO2025064535, Compound 82] | 2.11
C[C@@H](C(=O)Nc1nc2cc3c(cc2s1)OC(F)(F)O3)N1CCC[C@@H](CO)C1 [WO2025064535, Compound 7] | 1.13
C[C@@H](C(=O)Nc1nc2cc3c(cc2s1)OC(F)(F)O3)N1CC[C@@H](F)[C@H](c2cc[n+]([O-])cc2)C1 [WO2025064535, Compound 37] | > 30
C[C@@H](C(=O)Nc1nc2cc3c(cc2s1)CCC3)N1CCC(F)(F)[C@@H](c2c[nH]c(=O)c(CO)c2)C1 [WO2025064535, Compound 106] | > 30
C[C@@H](C(=O)Nc1nc2cc3c(cc2s1)OC(F)(F)O3)N1CCC(F)(F)[C@H](c2c[nH]c(=O)c(CN3CCC(F)(F)CC3)c2)C1 [WO2025064535, Compound 69] | 0.169

SMILES | IC50 [µM]
C[C@@H](C(=O)Nc1cc2cc3c(cc2s1)OC(F)(F)O3)N1CCC(F)(F)[C@@H](c2c[nH]c(=O)c([C@H](N)C(F)(F)F)c2)C1 [WO2025064535, Compound 14] | 12.8
C[C@@H](C(=O)Nc1nc2cc3c(cc2s1)OC(F)(F)O3)N1CCC[C@H](c2cc[n+]([O-])cc2)C1 [WO2025064535, Compound 50] | 0.222
C[C@@H](C(=O)Nc1nc2cc3c(cc2s1)OC(F)(F)O3)N1CCC(F)(F)[C@@H](c2c[nH]c(=O)c([C@@H](O)CO)c2)C1 [WO2025064535, Compound 42] | > 30
C[C@@H](C(=O)Nc1nc2cc3c(cc2s1)OCO3)N1CCC(F)(F)[C@@H](c2cc[n+]([O-])cc2)C1 [WO2025064535, Compound 80] | 0.196
C[C@@H](C(=O)Nc1nc2cc3c(cc2s1)OC(F)(F)O3)N1CCC(F)(F)[C@@H](c2c[nH]c(=O)c(CN3CCC(F)(F)CC3)c2)C1 [WO2025064535, Compound 68] | > 30
C[C@@H](C(=O)Nc1nc2cc3c(cc2s1)OC(F)(F)O3)N1CCO[C@@H](c2ccc(=O)[nH]c2)C1 [WO2025064535, Compound 3] | 0.049
C[C@@H](C(=O)Nc1nc2cc3c(cc2s1)OCCO3)N1CCC(F)(F)[C@@H](c2c[nH]c(=O)cn2)C1 [WO2025064535, Compound 40] | 0.77
C[C@@H](C(=O)Nc1nc2cc3c(cc2s1)CCC3)N1CCC(F)(F)[C@@H](c2ccc(=O)[nH]c2)C1 [WO2025064535, Compound 27] | 0.292
CNCc1cc([C@H]2CN([C@@H](C)C(=O)Nc3nc4cc5c(cc4s3)OC(F)(F)O5)CCC2(F)F)cc[n+]1[O-] [WO2025064535, Compound 101] | 3.43
C[C@@H](C(=O)Nc1nc2cc3c(cc2s1)OC(F)(F)O3)N1CCC(F)(F)[C@H](c2c[nH]c(=O)c([C@H](N)C(F)F)c2)C1 [WO2025064535, Compound 23] | 9.01
C[C@@H](C(=O)Nc1nc2cc3c(cc2s1)OC(F)(F)O3)N1CCO[C@H](c2ccc(=O)[nH]c2)C1 [WO2025064535, Compound 4] | > 30
C[C@@H](C(=O)Nc1nc2cc3c(cc2s1)OC(F)(F)O3)N1CCC(F)(F)[C@H](c2c[nH]c(=O)c([C@H](O)CO)c2)C1 [WO2025064535, Compound 45] | 0.022
C[C@@H](C(=O)Nc1nc2cc3c(cc2s1)OC(F)(F)O3)N1CCC(F)(F)[C@H](c2cc[n+]([O-])c([C@@H](O)CO)c2)C1 [WO2025064535, Compound 52] | > 30
C[C@@H](C(=O)Nc1nc2cc3c(cc2s1)OC(F)(F)O3)N1CCC(F)(F)[C@H](c2c[nH]c(=O)c([C@@H](N)C(F)F)c2)C1 [WO2025064535, Compound 24] | > 30
C[C@@H](C(=O)Nc1nc2cc3c(cc2s1)OC(F)(F)O3)N1CCC(F)(F)[C@@H](c2c[nH]c(=O)c([C@H](O)CO)c2)C1 [WO2025064535, Compound 44] | > 30
C[C@@H](C(=O)Nc1nc2cc3c(cc2s1)OC(F)(F)O3)N1CCC(F)(F)[C@H](c2c[nH]c(=O)c(CN3CCOCC3)c2)C1 [WO2025064535, Compound 67] | 0.303
C[C@@H](C(=O)Nc1nc2cc3c(cc2s1)OC(F)(F)O3)N1CCC(F)(F)[C@H](c2cc[n+]([O-])c(CN)c2)C1 [WO2025064535, Compound 65] | 0.032
C[C@@H](C(=O)Nc1nc2cc3c(cc2s1)OC(F)(F)O3)N1CCC(F)(F)[C@@H](n2ccc(=O)[nH]c2=O)C1 [WO2025064535, Compound 62] | > 30
C[C@@H](C(=O)Nc1nc2cc3c(cc2s1)OC(F)(F)O3)N1CCC(F)(F)[C@H](n2ccc(=O)[nH]c2=O)C1 [WO2025064535, Compound 63] | 0.635
C[C@@H](C(=O)Nc1nc2cc3c(cc2s1)OC(F)(F)O3)N1CCC(F)(F)[C@@H](c2cc[n+]([O-])c([C@H](O)CO)c2)C1 [WO2025064535, Compound 53] | 0.03
